Nc1ccc(Br)nn1
solubility (mole fraction)
Conditions | in DMF | in acetone | in ethanol | in isopropanol | in methanol | in n-butanol | in n-propanol | in propylene glycol | in toluene | in water
278.15 K | 0.0126 | 0.00754 | 0.00216 | 0.00276 | 0.00108 | 0.00362 | 0.00316 | 0.00191 | 0.00989 | 2.57e-05
283.15 K | 0.0134 | 0.00832 | 0.00233 | 0.0031 | 0.00115 | 0.00405 | 0.00356 | 0.00205 | 0.0108 | 2.74e-05
288.15 K | 0.0144 | 0.0092 | 0.00251 | 0.00346 | 0.00123 | 0.00451 | 0.00401 | 0.0022 | 0.0118 | 2.94e-05
293.15 K | 0.0155 | 0.0102 | 0.0027 | 0.00384 | 0.00131 | 0.005 | 0.00446 | 0.0024 | 0.0129 | 3.18e-05
298.15 K | 0.0167 | 0.0113 | 0.0029 | 0.0043 | 0.00142 | 0.00556 | 0.00496 | 0.0026 | 0.0141 | 3.43e-05
303.15 K | 0.0179 | 0.0125 | 0.00314 | 0.00475 | 0.00152 | 0.0062 | 0.00557 | 0.00281 | 0.0154 | 3.7e-05
308.15 K | 0.0192 | 0.0138 | 0.0034 | 0.0053 | 0.00165 | 0.00687 | 0.00617 | 0.00305 | 0.0167 | 3.97e-05
313.15 K | 0.0206 | 0.0153 | 0.00366 | 0.00586 | 0.00178 | 0.00759 | 0.00683 | 0.0033 | 0.018 | 4.27e-05
318.15 K | 0.0223 | 0.0169 | 0.00399 | 0.00649 | 0.00192 | 0.00838 | 0.00758 | 0.00357 | 0.0196 | 4.6e-05
323.15 K | 0.0242 | 0.0188 | 0.0044 | 0.00721 | 0.00209 | 0.00933 | 0.0085 | 0.00391 | 0.0213 | 4.98e-05

— BigSolDB 2.1
